Data published in patent US4910199A, “Imidazo[1,2-]pyridazines for cortical cholinergic deficiencies” (Sanofi, priority 1987, dated 1990).

Tests used:
[1] = tested on: rotatory behavior induced by intrastriatal pirenzepine; assay: antagonism of rotatory behavior induced by intrastriatal injection of pirenzepine in mice; format: in vivo, mouse (female, Swiss, CD 1); conditions: Mus musculus, ip; 50% reduction in number of rotations; i.p. 15 minutes before pirenzepine 1 μg into right striatum
Experimental: The intrastriatal injection of PZ into mice induces rotatory behavior. The antagonism of this behavior by the products according to the invention was studied. The products according to the invention are injected intraperitoneally (i.p.) after solubilization in distilled water or suspension in a 5% solution of gum arabic. The control animals receive an injection of the pure solvent under the ssame conditions. The animals used are female mice (Swiss, CD 1, Charles River, France) with a body weight of between 25 and 30 grams. The pirenzepine is dissolved in a phosphate buffer and the pH of the solution is 6. The test products of their solvents are injected intraperitoneally in a volume of 0.4 ml per 20 g of body weight, 15 minutes before a direct injection of pirenzepine into the right striatum of the mouse at a dose of 1 μg in 1 μl of solvent, according to the method described by P. WORMS et al. in Eur. J. Pharmacol., 1986, 121, 395-401. The number of contralateral rotations (rotations in the opposite direction to the side injected) was counted for three 2-minute periods after injection of the pirenzepine: 2nd to 4th, 8th to 10th and 13th to 15th minutes. Each treatment consists of 3 to 4 doses with 10 animals per dose. The total number of rotations and the percentage antagonism with respect to the control group are calculated for each treatment. The 50% effective dose (ED50), i.e. the dose which causes a 50% reduction in the number of rotations induced by pirenzepine, is determined graphically for each product.

[2] = molecular target: T1, M2-type muscarinic cholinergic receptor (Cavia porcellus, UniProt H0VRN8); assay: affinity for the M2-type muscarinic cholinergic receptor ([3H]-N-methylscopolamine displacement, smooth guinea-pig ileum muscle homogenate); format: binding; conditions: [3H]-NMS 0.3 nM, 20 min at 30° C., pH 7.5
T1 construct: on a smooth guinea-pig ileum muscle homogenate; from tissue; host or cells: guinea-pig ileum smooth muscle homogenate
T1 sequence (H0VRN8 1-466): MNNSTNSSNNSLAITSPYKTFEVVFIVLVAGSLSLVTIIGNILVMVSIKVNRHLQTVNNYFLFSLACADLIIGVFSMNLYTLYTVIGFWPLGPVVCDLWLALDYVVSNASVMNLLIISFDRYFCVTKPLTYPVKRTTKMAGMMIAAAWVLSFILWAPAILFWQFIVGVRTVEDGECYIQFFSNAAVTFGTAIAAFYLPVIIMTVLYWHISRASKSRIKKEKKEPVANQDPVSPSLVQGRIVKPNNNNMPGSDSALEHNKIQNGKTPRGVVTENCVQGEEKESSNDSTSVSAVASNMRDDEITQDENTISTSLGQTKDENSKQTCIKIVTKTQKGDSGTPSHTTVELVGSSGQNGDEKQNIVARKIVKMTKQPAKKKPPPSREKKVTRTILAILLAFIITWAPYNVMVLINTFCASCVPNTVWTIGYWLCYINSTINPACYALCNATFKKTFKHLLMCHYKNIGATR
Experimental: The M1 -type receptors are concentrated in certain regions of the brain, such as the hippocampus, the cerebral cortex and the striatum, and also in the sympathetic ganglia. These binding sites can be selectively labeled with [^3 H]-pirenzepine ([^3 H]-PZ). The M2 -type rreceptors predominate in the heart and the ileum and can be labeled with [^3 H]-N-methylscopolamine ([^3 H]-NMS). The selectivity of the compounds of the invention with respect to the M1 and M2 sites was determined by studying their in vitro interaction with [^3 H]-PZ and [^3 H]-NMS firmly bound with a high affinity to rat hippocampus membranes and smooth guinea-pig ileum muscle, respectively.
The interaction with the M2 -type muscarinic receptors was studied by in vitro measurement, on a smooth guinea-pig ileum muscle homogenate, of the displacement of tritiated N-methylscopolamine ([^3 H]-NMS) from its specific binding sites. Aliquots (50 μl) of a 0.625% (w/v) smooth guinea-pig ileum muscle homogenate in HEPES buffer (20 mM) containing NaCl (100 mM) and MgCl2 (10 mM) (final pH: 7.5) are incubated for 20 min at 30° C. in the presence of [^3 H]-NMS ([…]; final concentration 0.3 nM) and increasing concentrations of the test products. The final volume is 1 ml. The reaction is topped by centrifugation for 5 min at 15 000×g. The non-specific binding is determined in the presence of 10 μM atropine sulfate. (Ref.: R. Hammer, C. P. Berrie, N. I. M. Birdsall, A. S. V. Burgen and E. C. Hulme, Nature, 283, 90-92, 1980; E. C. Hulme, N. I. M. Birdsall, A. S. V. Burgen and P. Mettha, Mol. Pharmacol., 14, 737-750, 1978.)
Table 5 indicates the affinities of the products of the invention for the M1 and M2 receptors. The results are expressed as 50 percent inhibitory concentrations (IC50), i.e. the concentration (in μM) which induces the displacement of 50% of the tritiated ligand bound to the membrane receptors. The IC50 for ^3 H-pirenzepine displacement represents the affinity for the M1 receptor; The IC50 for ^3 H-NMS displacement represents the affinity for the M2 receptor.

[3] = molecular target: T2, M1-type muscarinic cholinergic receptor (Rattus norvegicus, UniProt P08482); assay: affinity for the M1-type muscarinic cholinergic receptor ([3H]-pirenzepine displacement, rat hippocampus homogenate); format: binding; conditions: for IC50: [3H]-PZ 1 nM, rat hippocampus homogenate, 2 h at 4° C., pH 7.40; for r = (M2/M1): ratio of the IC50 values for M2 (3H-NMS) and M1 (3H-pirenzepine), selectivity
T2 sequence (P08482 1-460): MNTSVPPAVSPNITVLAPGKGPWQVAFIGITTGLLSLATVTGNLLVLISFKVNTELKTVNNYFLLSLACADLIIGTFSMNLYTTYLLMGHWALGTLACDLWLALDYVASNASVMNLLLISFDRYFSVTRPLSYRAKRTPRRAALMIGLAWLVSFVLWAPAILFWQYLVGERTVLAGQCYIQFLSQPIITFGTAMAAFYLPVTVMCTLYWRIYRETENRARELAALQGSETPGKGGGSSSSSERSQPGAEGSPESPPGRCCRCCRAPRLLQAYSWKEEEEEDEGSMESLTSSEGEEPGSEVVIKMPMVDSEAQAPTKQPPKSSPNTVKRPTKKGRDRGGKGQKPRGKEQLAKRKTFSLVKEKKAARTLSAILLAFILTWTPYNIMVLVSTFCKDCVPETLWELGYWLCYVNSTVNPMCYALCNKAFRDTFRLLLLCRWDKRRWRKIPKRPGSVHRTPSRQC
Experimental: The interaction of the molecules with the M1 -type muscarinic receptors was studied by in vitro measurement, on a rat hippocampus homogenate, of the displacement of tritiated pirenzepine ([^3 H]-PZ) from its specific binding sites. Aliquots (10 μl) of a 5% (w/v) rat hippocampus homogenate in an Na2 HPO4 buffer (50 mM, pH 7.40) are incubated for 2 h at 4° C. in the presence of [^3 H]-PZ (76 Ci/nmol; final concentration 1 nM) and increasing concentrations of the test product. The final volume is 2 ml. The reaction is stopped by centrifugation for 10 min at 50 000×g. After decantation and washing of the residues, the bound radio-activity is counted by liquid scintillation. The non-specific binding is determined in the presence of 10 μM atropine sulfate. The 50% inhibitory concentration (IC50) is determined graphically.

Row | SMILES | ED50 [1] | IC50 [2] | IC50 [3] | r = (M2/M1) [3]
1 | c1ccc(-c2ccc3nc(CN4CCOCC4)cn3n2)cc1 [SR 95842 A] | 3 mg/kg |  |  | 
2 | Cc1cc(-c2ccccc2)nn2c(CN3CCOCC3)cnc12.Cl.Cl [SR 95950 A, 8-Methyl-3-morpholinomethyl-6-phenylimidazo[1,2-b]pyridazine dihydrochloride] | 5 mg/kg | > 100 µM | 1400 nM | > 71
3 | CCN(CC)Cc1cn2nc(-c3ccccc3)cc(C)c2n1.Cl.Cl [SR 96052 A, 2-Diethylaminomethyl-8-methyl-6-phenylimidazo[1,2-b]pyridazine dihydrochloride] | 8 mg/kg | 65 µM | 500 nM | 130
4 | c1ccc(-c2ccc3ncc(CN4CCOCC4)n3n2)cc1 [SR 96068 A] | 10 mg/kg |  |  | 
5 | CCN(CC)Cc1cn2nc(-c3ccccc3)ccc2n1 [SR 96069 A] |  | 100 µM | 1500 nM | 66
6 | CN(C)Cc1cnc2ccc(-c3ccccc3)nn12 [SR 96070 A] | 3 mg/kg |  |  | 
7 | COc1cccc(-c2cc(C)c3ncc(CN4CCOCC4)n3n2)c1 [SR 96088 A] |  |  | 8000 nM | 
8 | Clc1ccc(-c2ccc3nc(CN4CCOCC4)cn3n2)cc1 [SR 96089 A] |  | > 100 µM | 3000 nM | > 33
9 | CCN(CC)Cc1cn2nc(-c3cccc(OC)c3)cc(C)c2n1 [SR 96095 A] | 5 mg/kg | 65 µM | 400 nM | 162
10 | Clc1ccc(-c2ccc3ncc(CN4CCOCC4)n3n2)cc1 [SR 96109 A] | 8 mg/kg |  |  | 
11 | c1ccc(-c2cc(-c3ccccc3)c3ncc(CN4CCOCC4)n3n2)cc1 [SR 96111 A] | 7 mg/kg |  |  | 
